From patent publication US20130053430A1, “MODULATION OF CETP EXPRESSION” (Isis Pharmaceuticals, Inc., priority 2010, published 2013)
e = 2'-O-(2-methoxyethyl) (MOE); d = 2'-deoxy (DNA)

Columns and labels:
[1] = Plasma glucose in huCETP transgenic mice (Example 5); format: in vivo; details: 50 mg/kg i.p. twice per week
Description: (§1) The mice were divided into five treatment groups. The first four groups received intraperitoneal injections of ISIS 349511, ISIS 349512, ISIS 349515, or ISIS 349517 at a dose of 50 mg/kg twice per week for 6 weeks. The fifth group received intraperitoneal injections of saline twice weekly for 6 weeks.
Plasma glucose values were determined using a Beckman Glucose Analyzer II (Beckman Coulter) by a glucose oxidase method (Lott, J. A. et al., Clin. Chem. 21: 1754-1760, 1975).

[2] = Plasma cholesterol and triglyceride levels in huCETP transgenic mice (Example 5); format: in vivo; details: 50 mg/kg i.p. twice per week; for HDL / LDL / Total cholesterol / Triglycerides / VLDL: plasma
Description: as §1
Plasma cholesterol were extracted at weeks 3 and 6 by the method of Bligh and Dyer (Bligh, E. G. and Dyer, W. J. Can. J. Biochem. Physiol. 37: 911-917, 1959) and measured with an Olympus clinical analyzer (Hitachi Olympus AU400e, Melville, N.Y.). HDL, LDL and VLDL cholesterol were individually measured by HPLC. Triglyceride levels were measured with the use of a commercially available triglyceride kit (DCL Triglyceride Reagent; Diagnostic Chemicals Ltd.). The results are presented in Tables 13 and 14 and are expressed in mg/dL. There was a significant increase in HDL levels in mice treated with ISIS oligonucleotides.

[3] = Plasma cholesterol and triglyceride levels, dose response (Example 9); format: in vivo, mice
Description: (§2) Another group received subcutaneous injections of control oligonucleotide ISIS 141923 at a dose of 50 mg/kg/week for 6 weeks. One group of mice received subcutaneous injections of PBS for 6 weeks. The PBS-injected group served as the control group to which treatment groups were compared.
G. and Dyer, W. J. Can. J. Biochem. Physiol. 37: 911-917, 1959) and measured with an Olympus clinical analyzer (Hitachi Olympus AU400e, Melville, N.Y.). HDL and LDL cholesterol were individually measured by HPLC. Triglyceride levels were measured with the use of a commercially available triglyceride kit (DCL Triglyceride Reagent; Diagnostic Chemicals Ltd.). The results are presented in Tables 47-51 and are expressed in mg/dL.

[4] = system: ABCA1; assay: Liver ABCA1 mRNA expression (Example 9); format: in vivo, mice; details: percentage increase or decrease compared to PBS control, s.c. 6 weeks
Description: as §2
(§3) Liver RNA was isolated for real-time PCR analysis of ABCA1, ApoAI, and SR-B1. ATP-binding cassette transporter ABCA1 (member 1 of human transporter sub-family ABCA), also known as the cholesterol efflux regulatory protein (CERP) is a protein which in humans is encoded by the ABCA1 gene (Luciani, M. F. et al., Genomics. 1994. 21: 150-9). This transporter is a major regulator of cellular cholesterol and phospholipid homeostasis. Apolipoprotein A-I is a protein that in humans is encoded by the APOA1 gene (Breslow, J. L. et al., Proc. Natl. Acad. Sci. USA 1982. 79: 6861-5). Apolipoprotein A-I is the major protein component of HDL in plasma. The protein promotes cholesterol efflux from tissues to the liver for excretion. Scavenger receptor class B, type I (SR-BI) is an integral membrane protein found in numerous cell types/tissues, including the liver and adrenal (Acton, S. L. et al., J. Biol. Chem. 1994. 269: 21003-21009). It is best known for its role in facilitating the uptake of cholesteryl esters from high-density lipoproteins in the liver. Therefore, all three genes have a role in HDL regulation.
(§4) The primer probe set RTS1204 (forward sequence […], designated herein as SEQ ID NO: 122, reverse sequence […], designated herein as SEQ ID NO: 123, probe sequence AGGCCCAGACCTGTAAAGGCGAAGX, with X a fluorophore, designated herein as SEQ ID NO: 124) was used to measure abca1 levels. The primer probe set RTS14737 (forward sequence […], designated herein as SEQ ID NO: 125, reverse sequence […], designated herein as SEQ ID NO: 126, probe sequence CTGCAGGAACGGCTGGGCCCX, with X a fluorophore, designated herein as SEQ ID NO: 127) was used to measure apoA1 levels. The primer probe set mSRB-1 (forward sequence […], designated herein as SEQ ID NO: 128, reverse sequence ATGCGACTTGTCAGGCTGG, designated herein as SEQ ID NO: 129, probe sequence CGTGGAGAACCGCAGCCTCCATTX, with X a fluorophore, designated herein as SEQ ID NO: 130) was used to measure sr-b1 levels. The results are presented in Table 44 as percentage increase or decrease in the respective expression levels compared to the PBS control. Both primer probe sets produced similar results. The RNA expression levels were normalized to murine Cyclophilin. Treatment with ISIS 349517 caused an increase in ApoA1 and SR-B1 levels.

[5] = system: SR-B1; assay: Liver SR-B1 mRNA expression (Example 9); format: in vivo, mice; details: s.c. 6 weeks; for Percent inhibition of liver mRNA expression, SR-B1: percentage increase or decrease compared to PBS control
Description: as §2, §3, §4

ISIS 349511: 5-10-5 MOE gapmer CCCGACCTCCTTGGAGACTT (sugars from the 5' end e5 d10 e5, backbone and methylation of C not given here)
Glucose levels ([1]; week 3): 286 mg/dL | Glucose levels ([1]; week 6): 245 mg/dL | Percentage of HDL in total cholesterol ([2]; Week 3): 73% | Percentage of HDL in total cholesterol ([2]; week 6): 76% | HDL ([2]; week 3): 60 mg/dL | LDL ([2]; week 3): 15 mg/dL | Total cholesterol ([2]; week 3): 83 mg/dL | Triglycerides ([2]; week 3): 87 mg/dL | HDL ([2]; week 6): 66 mg/dL | LDL ([2]; week 6): 17 mg/dL | Total cholesterol ([2]; week 6): 88 mg/dL | Triglycerides ([2]; week 6): 84 mg/dL | VLDL ([2]; week 6): 4 mg/dL

ISIS 141923: CCTTCCCTGAAGGTTCCTCC, 5-10-5 MOE gapmer, a control oligonucleotide which has no known murine target (sugars from the 5' end e5 d10 e5, backbone and methylation of C not given here) [reference compound]
HDL cholesterol levels ([3]; 50 mg/kg/wk, Week 0): 87 mg/dL | LDL cholesterol levels ([3]; 50 mg/kg/wk, Week 0): 54 mg/dL | Total cholesterol levels ([3]; 50 mg/kg/wk, Week 0): 153 mg/dL | Triglyceride levels ([3]; 50 mg/kg/wk, Week 0): 49 mg/dL | % change in HDL levels compared to total cholesterol ([3]; 50 mg/kg/wk, Week 3): −17% | HDL cholesterol levels ([3]; 50 mg/kg/wk, Week 3): 115 mg/dL | LDL cholesterol levels ([3]; 50 mg/kg/wk, Week 3): 42 mg/dL | Total cholesterol levels ([3]; 50 mg/kg/wk, Week 3): 164 mg/dL | Triglyceride levels ([3]; 50 mg/kg/wk, Week 3): 58 mg/dL | % change in HDL levels compared to total cholesterol ([3]; 50 mg/kg/wk, Week 6): −23% | HDL cholesterol levels ([3]; 50 mg/kg/wk, Week 6): 124 mg/dL | LDL cholesterol levels ([3]; 50 mg/kg/wk, Week 6): 47 mg/dL | Total cholesterol levels ([3]; 50 mg/kg/wk, Week 6): 180 mg/dL | Triglyceride levels ([3]; 50 mg/kg/wk, Week 6): 88 mg/dL | Percent inhibition of liver mRNA expression, ABCA1 ([4]; Dose 50 mg/kg/wk): +16% | Percent inhibition of liver mRNA expression, SR-B1 ([5]; Dose 50 mg/kg/wk): +37%

ISIS 349517: 5-10-5 MOE gapmer CAGCACTTTAATGCCAGTGG (sugars from the 5' end e5 d10 e5, backbone and methylation of C not given here)
HDL cholesterol levels ([3]; 1.5 mg/kg/wk, Week 0): 80 mg/dL | LDL cholesterol levels ([3]; 1.5 mg/kg/wk, Week 0): 58 mg/dL | Total cholesterol levels ([3]; 1.5 mg/kg/wk, Week 0): 154 mg/dL | Triglyceride levels ([3]; 1.5 mg/kg/wk, Week 0): 63 mg/dL | % change in HDL levels compared to total cholesterol ([3]; 1.5 mg/kg/wk, Week 3): 12% | HDL cholesterol levels ([3]; 1.5 mg/kg/wk, Week 3): 117 mg/dL | LDL cholesterol levels ([3]; 1.5 mg/kg/wk, Week 3): 35 mg/dL | Total cholesterol levels ([3]; 1.5 mg/kg/wk, Week 3): 171 mg/dL | Triglyceride levels ([3]; 1.5 mg/kg/wk, Week 3): 50 mg/dL | % change in HDL levels compared to total cholesterol ([3]; 1.5 mg/kg/wk, Week 6): 24% | HDL cholesterol levels ([3]; 1.5 mg/kg/wk, Week 6): 132 mg/dL | LDL cholesterol levels ([3]; 1.5 mg/kg/wk, Week 6): 38 mg/dL | Total cholesterol levels ([3]; 1.5 mg/kg/wk, Week 6): 180 mg/dL | Triglyceride levels ([3]; 1.5 mg/kg/wk, Week 6): 91 mg/dL | HDL cholesterol levels ([3]; 5 mg/kg/wk, Week 0): 88 mg/dL | LDL cholesterol levels ([3]; 5 mg/kg/wk, Week 0): 62 mg/dL | Total cholesterol levels ([3]; 5 mg/kg/wk, Week 0): 164 mg/dL | Triglyceride levels ([3]; 5 mg/kg/wk, Week 0): 57 mg/dL | % change in HDL levels compared to total cholesterol ([3]; 5 mg/kg/wk, Week 3): 11% | HDL cholesterol levels ([3]; 5 mg/kg/wk, Week 3): 130 mg/dL | LDL cholesterol levels ([3]; 5 mg/kg/wk, Week 3): 31 mg/dL | Total cholesterol levels ([3]; 5 mg/kg/wk, Week 3): 172 mg/dL | Triglyceride levels ([3]; 5 mg/kg/wk, Week 3): 51 mg/dL | % change in HDL levels compared to total cholesterol ([3]; 5 mg/kg/wk, Week 6): 23% | HDL cholesterol levels ([3]; 5 mg/kg/wk, Week 6): 151 mg/dL | LDL cholesterol levels ([3]; 5 mg/kg/wk, Week 6): 36 mg/dL | Total cholesterol levels ([3]; 5 mg/kg/wk, Week 6): 202 mg/dL | Triglyceride levels ([3]; 5 mg/kg/wk, Week 6): 85 mg/dL | HDL cholesterol levels ([3]; 15 mg/kg/wk, Week 0): 86 mg/dL | LDL cholesterol levels ([3]; 15 mg/kg/wk, Week 0): 54 mg/dL | Total cholesterol levels ([3]; 15 mg/kg/wk, Week 0): 152 mg/dL | Triglyceride levels ([3]; 15 mg/kg/wk, Week 0): 47 mg/dL | % change in HDL levels compared to total cholesterol ([3]; 15 mg/kg/wk, Week 3): 26% | HDL cholesterol levels ([3]; 15 mg/kg/wk, Week 3): 141 mg/dL | LDL cholesterol levels ([3]; 15 mg/kg/wk, Week 3): 32 mg/dL | Total cholesterol levels ([3]; 15 mg/kg/wk, Week 3): 185 mg/dL | Triglyceride levels ([3]; 15 mg/kg/wk, Week 3): 48 mg/dL | % change in HDL levels compared to total cholesterol ([3]; 15 mg/kg/wk, Week 6): 42% | HDL cholesterol levels ([3]; 15 mg/kg/wk, Week 6): 164 mg/dL | LDL cholesterol levels ([3]; 15 mg/kg/wk, Week 6): 40 mg/dL | Total cholesterol levels ([3]; 15 mg/kg/wk, Week 6): 217 mg/dL | Triglyceride levels ([3]; 15 mg/kg/wk, Week 6): 85 mg/dL | HDL cholesterol levels ([3]; 50 mg/kg/wk, Week 0): 77 mg/dL | LDL cholesterol levels ([3]; 50 mg/kg/wk, Week 0): 59 mg/dL | Total cholesterol levels ([3]; 50 mg/kg/wk, Week 0): 145 mg/dL | Triglyceride levels ([3]; 50 mg/kg/wk, Week 0): 41 mg/dL | % change in HDL levels compared to total cholesterol ([3]; 50 mg/kg/wk, Week 3): 43% | HDL cholesterol levels ([3]; 50 mg/kg/wk, Week 3): 139 mg/dL | LDL cholesterol levels ([3]; 50 mg/kg/wk, Week 3): 33 mg/dL | Total cholesterol levels ([3]; 50 mg/kg/wk, Week 3): 184 mg/dL | Triglyceride levels ([3]; 50 mg/kg/wk, Week 3): 49 mg/dL | % change in HDL levels compared to total cholesterol ([3]; 50 mg/kg/wk, Week 6): 37% | HDL cholesterol levels ([3]; 50 mg/kg/wk, Week 6): 123 mg/dL | LDL cholesterol levels ([3]; 50 mg/kg/wk, Week 6): 38 mg/dL | Total cholesterol levels ([3]; 50 mg/kg/wk, Week 6): 170 mg/dL | Triglyceride levels ([3]; 50 mg/kg/wk, Week 6): 60 mg/dL | Percent inhibition of liver mRNA expression, ABCA1 ([4]; Dose 1.5 mg/kg/wk): +6% | Percent inhibition of liver mRNA expression, ABCA1 ([4]; Dose 5 mg/kg/wk): +15% | Percent inhibition of liver mRNA expression, ABCA1 ([4]; Dose 15 mg/kg/wk): −6% | Percent inhibition of liver mRNA expression, ABCA1 ([4]; Dose 50 mg/kg/wk): −15% | SR-B1 levels (liver mRNA) ([5]; huCETP transgenic mice, Western diet): increase | Percent inhibition of liver mRNA expression, SR-B1 ([5]; Dose 1.5 mg/kg/wk): +33% | Percent inhibition of liver mRNA expression, SR-B1 ([5]; Dose 5 mg/kg/wk): +34% | Percent inhibition of liver mRNA expression, SR-B1 ([5]; Dose 15 mg/kg/wk): +50% | Percent inhibition of liver mRNA expression, SR-B1 ([5]; Dose 50 mg/kg/wk): +42% | Glucose levels ([1]; week 3): 333 mg/dL | Glucose levels ([1]; week 6): 254 mg/dL | Percentage of HDL in total cholesterol ([2]; Week 3): 75% | Percentage of HDL in total cholesterol ([2]; week 6): 74% | HDL ([2]; week 3): 59 mg/dL | LDL ([2]; week 3): 14 mg/dL | Total cholesterol ([2]; week 3): 79 mg/dL | Triglycerides ([2]; week 3): 68 mg/dL | HDL ([2]; week 6): 55 mg/dL | LDL ([2]; week 6): 15 mg/dL | Total cholesterol ([2]; week 6): 75 mg/dL | Triglycerides ([2]; week 6): 103 mg/dL | VLDL ([2]; week 6): 4 mg/dL
